Where two headings read alike, the source gives them in different places. Marks after values point to notes of the source that are not given here.
What was measured:
[1] = cited from earlier work
[2] = Population pharmacokinetic analysis (NONMEM) of artemether-lumefantrine and metabolites in Tanzanian malaria patients (Kibaoni); format: in vivo, human; details: for clearance / Vd: human, plasma, oral; for Vd: read-out: VSS (steady-state volume of distribution), population estimate for a person of 70 kg
Method: Three studies have been conducted, one in Tanzania and two in Cambodia. The study profiles are described in Figure 1. The first study was performed during March to May 2008 at the Kibaoni Health Centre, Kilombero district, Morogoro region, Tanzania. […] Six AM-LF (Coartem®, Novartis Pharma, Switzerland) doses were administered at time 0, 8, […] according to body weight (see Table 1); patients were either admitted for three days or asked to come back to the health facility for each drug administration. Mothers of breastfed patients were encouraged to feed their children and patients admitted were provided with food. Patients who reported that they have not eaten within two hours to prior dose intake were instructed to eat as soon as possible. Patients were seen by the clinical officer on days 0, 1, 2, 3, 7, 14, 28, and 42. A blood sample for pharmacokinetic measurement was taken at baseline (pre-dose on day 0) and on days 1, 2, and 7 at pre-defined random times after the last dosing. At each visit, a filter paper sample and a thin and thick smear were taken, in addition to axillary temperature, respiratory rate and haemoglobin measurements (only on days 0, 28 and 42) as well as evaluation of symptoms (e.g. headache, vomiting, and diarrhea). The exact dose and time of last drug intake, body weight, height, age, sex, food intake and concomitant medications were carefully recorded. If patients suffered from concomitant illnesses they were provided with additional treatment (paracetamol, mebendazole, metronidazole, cloxacillin, amoxicillin). Samples of 2 ml of venous blood were collected on an EDTA Vacutainer and kept on ice for no longer than 6 h after withdrawal and then aliquoted into whole blood, plasma and pellet and immediately stored in liquid nitrogen or a -80°C freezer. […] The laboratory is part of the quality control system of the World-Wide Antimalarial Resistance Network (WWARN). The pharmacokinetic analysis for each drug taken separately was performed using the NONMEM computer program Version 6 (NM-TRAN version II). It uses mixed (fixed and random) effects regression to estimate population means and variances of the pharmacokinetic parameters and to identify factors that influence them. One-, two- and three-compartment pharmacokinetic models with first-order absorption, with and without absorption lag times, were compared. Additional one or two-compartments were used for anti-malarials presenting metabolite concentrations (AM and LF). The final parameters estimated were systemic clearance (CL/F), inter-compartmental clearance (Q/F), central volume of distribution (VC/F), peripheral volume of distribution (VP/F) and absorption rate constant (ka). Since no intravenous drug concentration data were available, these parameters represent apparent values. Where available, metabolite data were included into the model and metabolism rate constant from drug compartment to metabolite compartment (k23) and metabolite clearance (CLmet) were also estimated. Owing to identifiability problems, the volume of distribution of the metabolites (VM) DLF and DHA were assumed to equal LF and AM VC, respectively. […] The observed baseline residual plasma concentrations were fitted by estimating a factor (F0) that provided an estimation of the residual doses from previous treatment. […] Proportional and combined proportional-and-additive error models were compared to describe intra-patient (residual) variability for the mother compound, and if available for its metabolite using Cpij(1 + ε1ij) + ε2ij or Cmij(1 + ε3ij) + ε4ij, where Cpij are the corresponding predicted i^th drug plasma concentration and Cmij are the predicted metabolite concentration for the j^th individual, and ε1ij, ε2ij, ε3ij, ε4ij, are independent normally distributed residual error terms with a mean of zero and a variance of σ^2_1, σ^2_2, σ^2_3, σ^2_4. The covariate analysis was performed using a stepwise insertion/deletion approach. […]

[3] = Population pharmacokinetic analysis (NONMEM) of piperaquine in Cambodian malaria patients (Pramoy, DHA-PPQ); format: in vivo, human
Method: The third study was performed during July to October 2008 at Pramoy Health Centre, Veal Veng district, Pursat province, Cambodia. A total of 287 suspected malaria cases were screened by microscopy, of whom 82 (29%) were infected with P. falciparum and 50 (17%) with P. vivax (no mixed infections). Children younger than six years of age and pregnant or lactating women were excluded. Three doses of DHA-PPQ (Duo-Cotecxin®, Zhejiang Holley Nanhu Pharmaceutical Co., Ltd, China) were given according to age (as per national guidelines) on three consecutive days (see Table 1). Same follow-up and blood sampling as at Phnom Dék were performed.
Samples of 2 ml of venous blood were collected on an EDTA Vacutainer and kept on ice for no longer than 6 h after withdrawal and then aliquoted into whole blood, plasma and pellet and immediately stored in liquid nitrogen or a –80°C freezer. […] The method was validated according to FDA recommendations, including assessment of extraction yield, matrix effect variability, overall process efficiency, standard addition experiments as well as anti-malarials short- and long-term stability in plasma. […] The laboratory is part of the quality control system of the World-Wide Antimalarial Resistance Network (WWARN).
The pharmacokinetic analysis for each drug taken separately was performed using the NONMEM computer program Version 6 (NM-TRAN version II). It uses mixed (fixed and random) effects regression to estimate population means and variances of the pharmacokinetic parameters and to identify factors that influence them.
One-, two- and three-compartment pharmacokinetic models with first-order absorption, with and without absorption lag times, were compared. Additional one or two-compartments were used for anti-malarials presenting metabolite concentrations (AM and LF). The final parameters estimated were systemic clearance (CL/F), inter-compartmental clearance (Q/F), central volume of distribution (VC/F), peripheral volume of distribution (VP/F) and absorption rate constant (ka). Since no intravenous drug concentration data were available, these parameters represent apparent values. Where available, metabolite data were included into the model and metabolism rate constant from drug compartment to metabolite compartment (k23) and metabolite clearance (CLmet) were also estimated. Owing to identifiability problems, the volume of distribution of the metabolites (VM) DLF and DHA were assumed to equal LF and AM VC, respectively. […] The observed baseline residual plasma concentrations were fitted by estimating a factor (F0) that provided an estimation of the residual doses from previous treatment.
Exponential errors following a log-normal distribution were assumed for the description of inter-patient variability of the pharmacokinetic parameters and were of the form: θi=θ×e^ηj where θi is the individual pharmacokinetic parameter value in the j^th individual, θ is the population parameter estimate, and ηj is the random effect value, which is independently and normally distributed with a mean of 0 and variance ω^2. Proportional and combined proportional-and-additive error models were compared to describe intra-patient (residual) variability for the mother compound, and if available for its metabolite using Cpij(1 + ϵ1ij) + ϵ2ij or Cmij(1 + ϵ3ij) + ϵ4ij, where Cpij are the corresponding predicted i^th drug plasma concentration and Cmij are the predicted metabolite concentration for the j^th individual, and ϵ1ij, ϵ2ij, ϵ3ij, ϵ4ij, are independent normally distributed residual error terms with a mean of zero and a variance of σ^2_1, σ^2_2, σ^2_3, σ^2_4.
The covariate analysis was performed using a stepwise insertion/deletion approach. Visual inspection of the correlation between post hoc individual estimates of the pharmacokinetic parameters and the available covariates was first conducted by graphical exploration. […]

[4] = patients, age 7.7 ± 1.4 years, n 13, sampling 28 days
[5] = patients, median age 4.0 (1–10) years, n 50, sampling 72 h
[6] = patients, median age 22 (14–60) years, n 217
[7] = pregnant women, median age 21 (16–35) years, n 21, sampling 10 h
[8] = bootstrap evaluation, 200 replicates
[9] = present study, Tanzanian patients, sampling 7 days
[10] = non-pregnant women, median age 27.5 (18–45) years, n 24, sampling 84 days
[11] = patients, median age 6 (2–10) years, n 236, sampling 42 days
[12] = pregnant women, median age 25 (18–43) years, n 24, sampling 84 days

## CO[C@H]1O[C@@H]2O[C@@]3(C)CC[C@H]4[C@H](C)CC[C@@H]([C@H]1C)[C@@]24OO3 [Artemether, artemether]
[1]; [4]
  CL, population estimate for a person of 70 kg: 102 L/h
  VSS, population estimate for a person of 70 kg: 1263 L
[1]; [5]
  CL, population estimate for a person of 70 kg: 182–700^b L/h
  VSS, population estimate for a person of 70 kg: 364 L
[1]; [6]
  CL, population estimate for a person of 70 kg: 252^a L/h
  VSS, population estimate for a person of 70 kg: 304^a L
[1]; [7]
  CL, population estimate for a person of 70 kg: 1054^d L/h
  VSS, population estimate for a person of 70 kg: 2602^d L
[2]; [8]
  VC, bootstrap mean of 200: 133 L/kg
  k23, bootstrap mean of 200: 5.83 h⁻¹
  ka, bootstrap mean of 200: 0.27 h⁻¹
  θINH, bootstrap mean of 200: −0.27
  σC (CV%), bootstrap mean of 200: 73%
[2]; concomitant treatment
  decrease in CL in patients exposed to a CYP2C9 or CYP3A4 inhibitor: 70%
[2]; final model
  IIV (inter-individual variability) of CL: 44%
  IIV (inter-individual variability) of k23: 68%
  IIV (inter-individual variability) of ka: 119%
  ka (first-order absorption rate constant), population estimate: 0.27 h⁻¹
[2]; final model, intra-patient variability
  σC (CV%), residual error for the central compartment, population estimate: 74%
[2]; final model, parent to metabolite (AM to DHA, LF to DLF)
  k23 (metabolism rate constant), population estimate: 5.86 h⁻¹
[2]; [9]
  clearance: 9970 mL/min
  Vd: 129 L

## CCCCNCC(O)c1cc(Cl)cc2c1-c1ccc(Cl)cc1/C2=C/c1ccc(Cl)cc1 (centres unmarked) [DLF, desbutyl-lumefantrine]
[1]; [4]
  CL, population estimate for a person of 70 kg: 701 L/h
[2]; [9]
  CL, population estimate for a person of 70 kg: 336 L/h
  VSS (steady-state volume of distribution), population estimate for a person of 70 kg: 265^f L

## C[C@H]1[C@@H](O)O[C@@H]2O[C@@]3(C)CC[C@H]4[C@H](C)CC[C@@H]1[C@@]24OO3 [DHA, dihydroartemisinin]
[1]; [6]
  CL, population estimate for a person of 70 kg: 237^a L/h
[1]; [7]
  CL, population estimate for a person of 70 kg: 564 L/h
[2]; [9]
  clearance: 6980 mL/min
  Vd: 129 L

## Clc1ccc2c(N3CCN(CCCN4CCN(c5ccnc6cc(Cl)ccc56)CC4)CC3)ccnc2c1 [Piperaquine, piperaquine]
[1]; [10]
  CL, population estimate for a person of 70 kg: 92 L/h
  VSS, population estimate for a person of 70 kg: 58,030 L
[1]; patients, age 3–55 years, n 98, sampling 63 days
  CL, population estimate: 98^h L/h
[1]; patients, age 3–55 years, n 98, sampling 63 days, for a patient with a median body weight of 48 kg
  VSS, population estimate: 61,180^i L
[1]; [11]
  CL, population estimate for a person of 70 kg: 29 L/h
  VSS, population estimate for a person of 70 kg: 14,972 L
[1]; [12]
  CL, population estimate for a person of 70 kg: 90 L/h
  VSS, population estimate for a person of 70 kg: 37,030 L
[3]; [8]
  F0, bootstrap mean of 200: 125 mg
  Q, bootstrap mean of 200: 126 L/h
  VP, bootstrap mean of 200: 20,053 L
  ka, bootstrap mean of 200: 1.00 h⁻¹
[3]; bootstrap evaluation, 200 replicates, listed as head prints [μmolL^-1]
  σC, bootstrap mean of 200: 41%
[3]; final model
  IIV (inter-individual variability) of CL: 45%
  IIV (inter-individual variability) of VC: 65%
  IIV (inter-individual variability) of VP: 50%
  ka (first-order absorption rate constant), population estimate: 0.93 h⁻¹
[3]; final model, baseline
  F0 (residual amount from the previous treatment), population estimate: 123 mg
[3]; human, plasma, oral, present study, 60 patients, sampling 14 days
  clearance: 1820 mL/min
[3]; human, plasma, oral, present study, 60 patients, sampling 14 days, read-out: VSS, population estimate for a person of 70 kg
  Vd: 42800 L
[3]; initial dose 480–960 mg
  residual dose (F0) as percentage of an initial dose: 12.8–25.6%
